From patent publication US10231954B2, “Neurodegenerative therapies” (LYTIX BIOPHARMA AS, priority 2014, dated 2019)

How the values were obtained:
Type in all cases: biochemical
Conditions in all cases: 100 micromolar inhibitor concentration, 100 is no change
[1] = target: MAPKAP-K3 (Homo sapiens, UniProt Q16644); test: Kinase profiling MAPKAP-K3
From the text: (§1) Any value less that 25 is considered to be highly significant inhibition.

[2] = target: MARK1 (Homo sapiens, UniProt Q9P0L2); test: Kinase profiling MARK1
From the text: as §1

[3] = target: T1, TSSK1 (Homo sapiens, UniProt Q9BXA7); test: Kinase profiling TSSK1
T1 sequence (Q9BXA7 1-367): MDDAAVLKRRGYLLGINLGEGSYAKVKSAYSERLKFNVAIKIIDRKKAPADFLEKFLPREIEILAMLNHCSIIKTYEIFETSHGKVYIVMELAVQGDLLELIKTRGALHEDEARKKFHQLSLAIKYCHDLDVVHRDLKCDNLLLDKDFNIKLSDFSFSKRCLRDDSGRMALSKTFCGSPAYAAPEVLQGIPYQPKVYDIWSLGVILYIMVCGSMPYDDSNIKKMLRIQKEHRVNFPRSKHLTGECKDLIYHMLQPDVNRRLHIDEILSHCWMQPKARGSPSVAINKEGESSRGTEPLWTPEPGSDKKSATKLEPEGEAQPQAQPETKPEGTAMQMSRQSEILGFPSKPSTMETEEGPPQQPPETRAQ
From the text: as §1

[4] = target: MEKK1 (Homo sapiens, UniProt Q13233); test: Kinase profiling MEKK1
From the text: as §1

[5] = target: IRAK1 (Homo sapiens, UniProt P51617); test: Kinase profiling IRAK1
From the text: as §1

[6] = target: T2, ULK2 (Homo sapiens, UniProt Q8IYT8); test: Kinase profiling ULK2
T2 sequence (Q8IYT8 1-1036): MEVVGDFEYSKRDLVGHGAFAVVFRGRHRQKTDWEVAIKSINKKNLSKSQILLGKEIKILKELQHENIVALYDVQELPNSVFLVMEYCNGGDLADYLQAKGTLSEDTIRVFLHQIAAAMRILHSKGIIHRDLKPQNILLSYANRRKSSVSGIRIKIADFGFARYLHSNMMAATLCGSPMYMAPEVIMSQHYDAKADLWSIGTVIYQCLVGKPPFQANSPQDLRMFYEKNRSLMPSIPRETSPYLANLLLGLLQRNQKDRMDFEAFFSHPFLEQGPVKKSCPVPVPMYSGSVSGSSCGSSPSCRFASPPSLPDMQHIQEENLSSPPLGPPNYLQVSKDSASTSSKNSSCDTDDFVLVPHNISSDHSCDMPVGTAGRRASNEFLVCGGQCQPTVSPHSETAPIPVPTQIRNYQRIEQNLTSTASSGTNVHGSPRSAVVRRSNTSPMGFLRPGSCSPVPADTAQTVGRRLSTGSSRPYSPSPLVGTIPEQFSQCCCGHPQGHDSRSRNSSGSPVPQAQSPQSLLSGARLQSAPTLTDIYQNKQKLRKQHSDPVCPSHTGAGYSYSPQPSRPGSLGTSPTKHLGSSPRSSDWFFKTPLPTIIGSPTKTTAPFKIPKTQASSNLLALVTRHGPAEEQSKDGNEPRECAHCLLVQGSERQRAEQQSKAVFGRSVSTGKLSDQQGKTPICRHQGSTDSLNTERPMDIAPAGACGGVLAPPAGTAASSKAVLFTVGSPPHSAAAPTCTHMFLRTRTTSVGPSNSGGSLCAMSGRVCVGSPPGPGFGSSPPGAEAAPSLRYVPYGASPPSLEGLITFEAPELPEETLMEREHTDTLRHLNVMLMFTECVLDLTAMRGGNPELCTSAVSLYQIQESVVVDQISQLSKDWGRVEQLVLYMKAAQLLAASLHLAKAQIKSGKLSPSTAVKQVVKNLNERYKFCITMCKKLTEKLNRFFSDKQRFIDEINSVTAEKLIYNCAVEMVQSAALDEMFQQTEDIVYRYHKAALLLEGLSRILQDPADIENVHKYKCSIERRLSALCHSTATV
From the text: as §1

[7] = target: T3, TGFBR1 (Homo sapiens, UniProt P36897); test: Kinase profiling TGFBR1
T3 sequence (P36897 34-503): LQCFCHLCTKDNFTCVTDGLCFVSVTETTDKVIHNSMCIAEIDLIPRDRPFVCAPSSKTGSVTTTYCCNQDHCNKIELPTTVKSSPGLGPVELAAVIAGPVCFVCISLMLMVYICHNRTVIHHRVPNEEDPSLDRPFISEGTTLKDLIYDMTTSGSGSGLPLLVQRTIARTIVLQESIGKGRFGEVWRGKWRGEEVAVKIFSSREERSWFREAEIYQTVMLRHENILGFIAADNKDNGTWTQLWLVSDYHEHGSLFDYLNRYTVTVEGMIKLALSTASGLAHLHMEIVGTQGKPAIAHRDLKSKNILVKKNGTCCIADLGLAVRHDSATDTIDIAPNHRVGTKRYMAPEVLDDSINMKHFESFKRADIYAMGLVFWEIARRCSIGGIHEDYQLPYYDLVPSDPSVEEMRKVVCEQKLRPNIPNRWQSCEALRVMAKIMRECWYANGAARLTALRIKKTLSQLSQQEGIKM
From the text: as §1

[8] = target: TIE2 (Homo sapiens, UniProt Q02763); test: Kinase profiling TIE2
From the text: as §1

[9] = target: IRR (Homo sapiens, UniProt P14616); test: Kinase profiling IRR
From the text: as §1

Sequence of MEKK1 (Q13233 whole entry, species assumed): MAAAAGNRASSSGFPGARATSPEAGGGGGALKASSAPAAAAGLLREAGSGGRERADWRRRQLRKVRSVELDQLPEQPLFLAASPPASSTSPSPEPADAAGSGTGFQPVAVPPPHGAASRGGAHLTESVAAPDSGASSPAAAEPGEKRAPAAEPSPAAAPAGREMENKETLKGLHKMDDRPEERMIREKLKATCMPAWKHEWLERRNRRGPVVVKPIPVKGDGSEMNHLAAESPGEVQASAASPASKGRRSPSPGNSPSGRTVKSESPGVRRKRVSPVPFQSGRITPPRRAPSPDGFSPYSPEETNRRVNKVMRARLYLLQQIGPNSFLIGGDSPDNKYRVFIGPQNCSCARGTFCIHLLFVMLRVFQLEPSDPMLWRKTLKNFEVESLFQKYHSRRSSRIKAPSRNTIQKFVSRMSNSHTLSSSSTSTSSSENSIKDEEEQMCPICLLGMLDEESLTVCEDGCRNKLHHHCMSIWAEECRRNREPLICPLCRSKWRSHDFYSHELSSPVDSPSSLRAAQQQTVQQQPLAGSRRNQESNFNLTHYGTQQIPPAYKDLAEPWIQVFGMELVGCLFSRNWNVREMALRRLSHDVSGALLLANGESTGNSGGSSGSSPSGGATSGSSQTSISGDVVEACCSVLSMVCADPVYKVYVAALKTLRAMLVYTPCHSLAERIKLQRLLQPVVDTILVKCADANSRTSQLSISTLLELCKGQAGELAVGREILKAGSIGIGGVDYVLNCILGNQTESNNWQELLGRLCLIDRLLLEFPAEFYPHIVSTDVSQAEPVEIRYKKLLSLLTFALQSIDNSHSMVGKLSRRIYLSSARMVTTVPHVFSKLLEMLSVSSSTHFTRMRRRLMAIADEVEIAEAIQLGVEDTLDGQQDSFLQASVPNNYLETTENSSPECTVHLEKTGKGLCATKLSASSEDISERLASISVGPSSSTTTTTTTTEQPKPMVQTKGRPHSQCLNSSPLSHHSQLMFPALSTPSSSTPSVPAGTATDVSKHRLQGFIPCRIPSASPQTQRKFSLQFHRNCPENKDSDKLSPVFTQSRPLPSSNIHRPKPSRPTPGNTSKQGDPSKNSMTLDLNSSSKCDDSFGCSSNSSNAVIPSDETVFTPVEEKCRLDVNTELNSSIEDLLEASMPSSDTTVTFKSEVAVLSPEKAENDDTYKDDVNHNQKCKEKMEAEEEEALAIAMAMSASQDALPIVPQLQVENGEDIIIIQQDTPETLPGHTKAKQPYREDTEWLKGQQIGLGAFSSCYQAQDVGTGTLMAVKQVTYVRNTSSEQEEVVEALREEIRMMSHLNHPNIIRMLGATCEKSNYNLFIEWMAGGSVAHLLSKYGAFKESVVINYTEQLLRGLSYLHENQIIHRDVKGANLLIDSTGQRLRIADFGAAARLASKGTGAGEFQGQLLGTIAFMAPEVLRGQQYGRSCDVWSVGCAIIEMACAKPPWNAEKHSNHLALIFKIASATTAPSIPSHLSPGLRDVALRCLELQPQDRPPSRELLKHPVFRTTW
Sequence of MARK1 (Q9P0L2 whole entry, species assumed): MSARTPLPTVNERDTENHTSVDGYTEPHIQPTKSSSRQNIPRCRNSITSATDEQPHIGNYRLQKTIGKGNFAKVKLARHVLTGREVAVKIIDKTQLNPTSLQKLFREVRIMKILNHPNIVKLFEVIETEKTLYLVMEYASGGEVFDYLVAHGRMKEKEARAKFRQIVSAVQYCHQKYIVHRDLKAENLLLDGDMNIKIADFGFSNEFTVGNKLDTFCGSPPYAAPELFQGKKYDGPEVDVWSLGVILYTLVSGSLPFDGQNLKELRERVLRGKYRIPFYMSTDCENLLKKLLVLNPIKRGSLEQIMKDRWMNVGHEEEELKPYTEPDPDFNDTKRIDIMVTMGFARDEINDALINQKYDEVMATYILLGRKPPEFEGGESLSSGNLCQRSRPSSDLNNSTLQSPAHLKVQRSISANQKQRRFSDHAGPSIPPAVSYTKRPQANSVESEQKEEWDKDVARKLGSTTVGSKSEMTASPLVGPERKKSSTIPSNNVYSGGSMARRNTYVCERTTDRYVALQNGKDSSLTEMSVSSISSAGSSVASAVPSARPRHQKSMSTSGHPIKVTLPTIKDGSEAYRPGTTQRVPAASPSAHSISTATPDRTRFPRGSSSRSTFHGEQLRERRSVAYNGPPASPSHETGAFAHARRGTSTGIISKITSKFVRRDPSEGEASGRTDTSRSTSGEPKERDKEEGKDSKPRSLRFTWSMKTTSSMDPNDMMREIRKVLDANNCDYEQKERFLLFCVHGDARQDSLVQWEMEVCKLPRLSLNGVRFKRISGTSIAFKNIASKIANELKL
Sequence of MAPKAP-K3 (Q16644 whole entry, species assumed): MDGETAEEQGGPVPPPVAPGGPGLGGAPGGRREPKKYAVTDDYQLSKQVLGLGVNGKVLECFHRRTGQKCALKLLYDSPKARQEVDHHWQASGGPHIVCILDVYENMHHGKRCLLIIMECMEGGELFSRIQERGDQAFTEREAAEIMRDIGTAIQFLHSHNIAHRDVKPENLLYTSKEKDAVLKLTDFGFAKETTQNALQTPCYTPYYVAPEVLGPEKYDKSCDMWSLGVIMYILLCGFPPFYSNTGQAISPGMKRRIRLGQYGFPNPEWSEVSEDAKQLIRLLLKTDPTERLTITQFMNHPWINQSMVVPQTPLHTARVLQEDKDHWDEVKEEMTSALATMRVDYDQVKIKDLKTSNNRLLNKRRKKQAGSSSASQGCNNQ
Sequence of IRR (P14616 27-1297, species assumed): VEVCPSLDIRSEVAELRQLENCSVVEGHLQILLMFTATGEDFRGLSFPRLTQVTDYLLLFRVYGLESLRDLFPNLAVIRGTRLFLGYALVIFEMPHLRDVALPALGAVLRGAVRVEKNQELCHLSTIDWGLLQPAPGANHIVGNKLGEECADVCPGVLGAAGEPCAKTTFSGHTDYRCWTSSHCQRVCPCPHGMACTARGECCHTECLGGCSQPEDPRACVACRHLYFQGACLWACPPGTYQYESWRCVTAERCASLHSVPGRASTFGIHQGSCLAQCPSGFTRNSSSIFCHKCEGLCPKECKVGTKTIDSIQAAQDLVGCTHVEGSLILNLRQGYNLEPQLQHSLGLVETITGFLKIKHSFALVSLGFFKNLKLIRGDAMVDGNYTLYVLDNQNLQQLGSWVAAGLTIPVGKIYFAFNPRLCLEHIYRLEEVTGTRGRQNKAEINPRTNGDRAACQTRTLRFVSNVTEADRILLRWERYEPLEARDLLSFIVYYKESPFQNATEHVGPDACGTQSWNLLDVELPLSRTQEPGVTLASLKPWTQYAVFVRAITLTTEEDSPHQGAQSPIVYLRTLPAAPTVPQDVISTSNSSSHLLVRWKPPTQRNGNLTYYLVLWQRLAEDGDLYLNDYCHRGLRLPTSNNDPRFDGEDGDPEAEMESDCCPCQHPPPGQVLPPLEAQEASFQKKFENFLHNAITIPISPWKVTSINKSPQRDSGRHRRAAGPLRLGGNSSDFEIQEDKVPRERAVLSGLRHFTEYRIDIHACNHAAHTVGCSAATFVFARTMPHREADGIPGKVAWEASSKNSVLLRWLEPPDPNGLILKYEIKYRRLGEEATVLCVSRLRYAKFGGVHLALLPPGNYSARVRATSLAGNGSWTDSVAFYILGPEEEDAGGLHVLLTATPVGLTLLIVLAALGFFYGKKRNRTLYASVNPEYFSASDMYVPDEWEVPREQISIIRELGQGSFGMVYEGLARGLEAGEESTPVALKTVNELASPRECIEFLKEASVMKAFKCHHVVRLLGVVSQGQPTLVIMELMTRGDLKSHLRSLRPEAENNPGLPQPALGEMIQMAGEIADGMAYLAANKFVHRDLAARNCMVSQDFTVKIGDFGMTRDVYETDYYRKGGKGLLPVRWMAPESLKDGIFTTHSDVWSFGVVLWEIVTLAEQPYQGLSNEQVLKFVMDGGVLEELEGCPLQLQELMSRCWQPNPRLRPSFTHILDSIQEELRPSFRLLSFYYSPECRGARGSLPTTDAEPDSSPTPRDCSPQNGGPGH
Sequence of TIE2 (Q02763 23-1124, species assumed): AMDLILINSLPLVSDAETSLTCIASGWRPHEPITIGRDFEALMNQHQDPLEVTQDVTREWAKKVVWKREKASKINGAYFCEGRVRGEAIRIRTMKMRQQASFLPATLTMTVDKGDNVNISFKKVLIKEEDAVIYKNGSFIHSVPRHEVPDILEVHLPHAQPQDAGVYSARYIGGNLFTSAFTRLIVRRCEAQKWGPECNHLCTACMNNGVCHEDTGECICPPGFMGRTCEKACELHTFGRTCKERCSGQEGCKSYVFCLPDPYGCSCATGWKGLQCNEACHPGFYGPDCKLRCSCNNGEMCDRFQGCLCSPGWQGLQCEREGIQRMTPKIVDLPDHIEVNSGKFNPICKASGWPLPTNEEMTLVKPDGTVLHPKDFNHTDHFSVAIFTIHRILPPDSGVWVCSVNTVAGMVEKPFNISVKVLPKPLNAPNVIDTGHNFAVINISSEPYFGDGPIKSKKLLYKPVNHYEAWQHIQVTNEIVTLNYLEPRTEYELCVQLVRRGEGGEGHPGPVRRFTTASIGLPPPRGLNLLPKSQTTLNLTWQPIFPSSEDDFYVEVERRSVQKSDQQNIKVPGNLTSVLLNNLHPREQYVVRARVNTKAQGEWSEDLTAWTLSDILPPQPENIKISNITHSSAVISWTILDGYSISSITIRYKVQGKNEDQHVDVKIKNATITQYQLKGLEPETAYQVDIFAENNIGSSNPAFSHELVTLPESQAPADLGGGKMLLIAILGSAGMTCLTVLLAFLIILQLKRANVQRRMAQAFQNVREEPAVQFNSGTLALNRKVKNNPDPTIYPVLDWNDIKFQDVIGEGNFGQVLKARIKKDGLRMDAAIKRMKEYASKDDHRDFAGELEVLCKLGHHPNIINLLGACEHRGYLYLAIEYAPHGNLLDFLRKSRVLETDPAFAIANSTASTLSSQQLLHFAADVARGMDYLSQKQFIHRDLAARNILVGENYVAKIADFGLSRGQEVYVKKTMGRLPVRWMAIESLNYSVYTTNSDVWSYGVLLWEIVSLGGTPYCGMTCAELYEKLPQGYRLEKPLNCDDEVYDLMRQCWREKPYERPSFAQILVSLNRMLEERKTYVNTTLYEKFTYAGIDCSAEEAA

| Structure (SMILES) | residual kinase activity, MAPKAP-K3 [1] | residual kinase activity, MARK1 [2] | residual kinase activity, TSSK1 [3] | residual kinase activity, MEKK1 [4] | residual kinase activity, IRAK1 [5] | residual kinase activity, ULK2 [6] | residual kinase activity, TGFBR1 [7] | residual kinase activity, TIE2 [8] | residual kinase activity, IRR [9] | remaining activity at 100 µM ([1]; read-out: residual kinase activity, MAPKAP-K3) [%] | remaining activity at 100 µM ([2]; read-out: residual kinase activity, MARK1) [%] | remaining activity at 100 µM ([3]; read-out: residual kinase activity, TSSK1) [%] | remaining activity at 100 µM ([4]; read-out: residual kinase activity, MEKK1) [%] | remaining activity at 100 µM ([5]; read-out: residual kinase activity, IRAK1) [%] | remaining activity at 100 µM ([6]; read-out: residual kinase activity, ULK2) [%] | remaining activity at 100 µM ([7]; read-out: residual kinase activity, TGFBR1) [%] | remaining activity at 100 µM ([8]; read-out: residual kinase activity, TIE2) [%] | remaining activity at 100 µM ([9]; read-out: residual kinase activity, IRR) [%] |
| --- | --- | --- | --- | --- | --- | --- | --- | --- | --- | --- | --- | --- | --- | --- | --- | --- | --- | --- |
| CC(=O)Nc1nc2cc(C)ccc2s1 [Compound 03-76] | 106 | 94 | 79 | 107 | 59 | 88 | 98 | 95 | 66 |  |  |  |  |  |  |  |  |  |
| CC(=O)Nc1nc2cc(F)ccc2s1 [Compound 03-77] |  |  |  |  |  |  |  |  |  | 107 | 80 | 84 | 102 | 46 | 83 | 96 | 112 | 57 |
| O=C(Nc1nc2ccc(O)cc2s1)c1ccncc1 [Compound 08-42] | 51 | 75 | 85 | 76 | 38 | 63 | 106 | 80 | 71 |  |  |  |  |  |  |  |  |  |
| O=C(Nc1nc2ccc(O)cc2s1)c1cccnc1 [Compound 08-44] | 38 | 83 | 109 | 107 | 37 | 84 | 103 | 81 | 45 |  |  |  |  |  |  |  |  |  |
